Test results reported in paper PMC11130353, “Using host-mimicking conditions and a murine cutaneous abscess model to identify synergistic antibiotic combinations effective against Pseudomonas aeruginosa” (Frontiers in Cellular and Infection Microbiology, 2024).
Values after ≈ are worked out from the molar mass of the structure shown. “Also recorded” adds a separate entry of the source. Like-named read-outs stand apart in the source and are kept apart here.

Key:
[1] = Experimental: Mice used in this study were female Swiss Webster aged approximately 6-7 weeks and sourced from the University of Otago Biomedical Research Facility. […] Briefly, the fur on the back of each mouse was removed by shaving and chemical depilation. Antibiotics were tested for skin toxicity by injecting 50 μL of antibiotic suspension subcutaneously into naïve mice, and subsequent inspection of the skin for inflammation on the next day. P. aeruginosa LESB58 was grown to mid-log phase in dYT broth, washed twice in sterile PBS (Gibco, pH 7.4), and resuspended in PBS to ~1 x 10^8 CFU per 50 μL inoculum. The bacterial suspension (50 μL) was injected subcutaneously into the right side of the dorsum, followed one hour later by 50 μL of antibiotic treatment injected directly into the infected area. […] Combination treatments were administered as a single 50 μL injection containing both antibiotics. The concentration of each antibiotic in the combination was the same as when it was used alone. Progression of the infection was monitored daily, and abscess dimensions were measured on day three using a calliper. On day three, abscess tissue and pus were excised, homogenized in sterile PBS using SPEX SamplePrep 1600 MiniG for five minutes and bacterial CFU counts determined by serial dilution.
[2] = test system: P. aeruginosa LESB58; experiment: In vitro synergy, checkerboard assay; format: cell-based, Pseudomonas aeruginosa; conditions: MHB; for FICI, drug combined with CAZ / FICI, drug combined with CZA: FICI <= 0.5 indicates synergy
Experimental: (§1) For susceptibility testing under standard conditions, bacteria were cultured in Muller Hinton Broth MHB (Fort Richards Laboratories). Host mimicking conditions in vitro were simulated using tissue culture medium (TCM) consisting of Dulbecco’s modified Eagle medium (DMEM; Gibco #11965) supplemented with FBS (Moregate Biotech) (5% v/v) and glucose (1% w/v). Further susceptibility testing was also conducted in MHB supplemented with FBS (5% v/v) and DMEM supplemented with glucose (1% w/v) and MHB (10% v/v).
(§2) The P. aeruginosa LESB58.lux strain was used for in vitro synergy experiments with azithromycin in MHB and all antibiotic combinations in TCM to determine bacterial growth (as visual inspection and absorbance measurements were unreliable). Synergy was determined using the checkerboard method ([Berenbaum, 1978]; [Pletzer and Hancock, 2018]) in at least triplicate. Each antibiotic was two-fold serially diluted in sterile water before transferring to a 96-well plate containing 1 × 10^6 CFU mL^-1 bacteria in MHB or TCM. Plates were incubated at 37°C for 22-24 hours. The MIC alone or in combination was recorded as the lowest antibiotic concentration with no visible growth. For experiments using the LESB58.lux strain no visible growth was defined as an at least 95% reduction compared to the no antibiotic growth control in luminescence detected using a ClarioStar plate reader. The fractional inhibitory concentration index (FICI) was calculated as [(MICA in combination)/MICA] + [(MICB in combination)/MICB]. FICI values of 0.5 or below indicated synergy, while values above 0.5 up to and including 1 were taken to indicate additivity. FICI values above 1 indicate indifference or antagonism ([Odds, 2003]).

[3] = test system: P. aeruginosa PAO1; experiment: Minimum inhibitory concentration, broth microdilution; format: cell-based, Pseudomonas aeruginosa; conditions: for Fold change TCM vs MHB (MIC): MIC in TCM vs MIC in MHB; for MIC: Pseudomonas aeruginosa, PAO1
Experimental: (§3) For susceptibility testing under standard conditions, bacteria were cultured in Muller Hinton Broth MHB (Fort Richards Laboratories). […] Further susceptibility testing was also conducted in MHB supplemented with FBS (5% v/v) and DMEM supplemented with glucose (1% w/v) and MHB (10% v/v).
(§4) The minimum inhibitory concentration (MIC) of each antibiotic was determined using the broth microdilution method in 96-well plates. […] Briefly, antibiotics were two-fold serially diluted in MHB or TCM prior to adding 1 × 10^6 CFU mL^-1 bacteria. Plates were incubated at 37°C for 22-24 hours. The MIC was recorded as the lowest antibiotic concentration with no visible growth and the median value of at least three biological replicates reported.

[4] = test system: P. aeruginosa LESB58; experiment: microbe, parasite or virus in culture; format: cell-based, Pseudomonas aeruginosa; conditions: for Fold change TCM vs MHB (MIC): MIC in TCM vs MIC in MHB; for MIC: Pseudomonas aeruginosa
Experimental: as §3
as §4, with “Plates were incubated at 37°C for 22-24 hours.” left out

[5] = test system: P. aeruginosa LESB58-lux; experiment: In vitro synergy, checkerboard assay (luminescence readout); format: cell-based, Pseudomonas aeruginosa; conditions: TCM; for FICI, drug combined with CAZ / FICI, drug combined with CZA: FICI <= 0.5 indicates synergy
Experimental: as §1, §2

[6] = test system: P. aeruginosa LESB58; experiment: Murine high density subcutaneous skin abscess model; format: in vivo, Pseudomonas aeruginosa; conditions: Colistin
Experimental: Mice used in this study were female Swiss Webster aged approximately 6-7 weeks and sourced from the University of Otago Biomedical Research Facility. […] The subcutaneous abscess infection model was performed as previously described ([Pletzer et al., 2017]) with a higher inoculum. Briefly, the fur on the back of each mouse was removed by shaving and chemical depilation. Antibiotics were tested for skin toxicity by injecting 50 μL of antibiotic suspension subcutaneously into naïve mice, and subsequent inspection of the skin for inflammation on the next day. P. aeruginosa LESB58 was grown to mid-log phase in dYT broth, washed twice in sterile PBS (Gibco, pH 7.4), and resuspended in PBS to ~1 x 10^8 CFU per 50 μL inoculum. The bacterial suspension (50 μL) was injected subcutaneously into the right side of the dorsum, followed one hour later by 50 μL of antibiotic treatment injected directly into the infected area. […] Combination treatments were administered as a single 50 μL injection containing both antibiotics. The concentration of each antibiotic in the combination was the same as when it was used alone. Progression of the infection was monitored daily, and abscess dimensions were measured on day three using a calliper. On day three, abscess tissue and pus were excised, homogenized in sterile PBS using SPEX SamplePrep 1600 MiniG for five minutes and bacterial CFU counts determined by serial dilution. In this model, synergy was defined as being a significant difference between the combination treated group and the amalgamated group of single drug treated animals ([Fantin and Carbon, 1992]; [Pletzer et al., 2018]).
Statistical analysis was performed using GraphPad Prism 9.5.1. Bacterial CFU and abscess size data from in vivo experiments was analysed by Kruskal-Wallace test with Dunn’s correction for multiple comparisons. The data was considered significant when p-values were below 0.05 or 0.01 as indicated.

[7] = 50 μL injected subcutaneously, skin inspected next day
[8] = LESB58, read-out: MIC in MHB, MHB, 20-24 h
[9] = LESB58, read-out: MIC in TCM, TCM (DMEM + 1% glucose + 5% FBS), 20-24 h
[10] = tigecycline and tobramycin groups, compared to the vehicle control, day 3

| SMILES | Highest tolerated dose tested [1, 7] [mg/mL] | Fold decrease in CAZ MIC, drug combined with CAZ [2] | Fold decrease in CZA MIC, drug combined with CZA [2] | Fold decrease in other MIC, drug combined with CAZ [2] | Fold decrease in other MIC, drug combined with CZA [2] | FICI, drug combined with CAZ [2] | Fold change TCM vs MHB (MIC) [3] | MIC ([3]; read-out: MIC in MHB) [µg/mL] | MIC ([3]; read-out: MIC in TCM) [µg/mL] | Fold change TCM vs MHB (MIC) [4] | MIC [4, 8] [µg/mL] | MIC [4, 9] [µg/mL] | other results |
| --- | --- | --- | --- | --- | --- | --- | --- | --- | --- | --- | --- | --- | --- |
| C[C@H]1[C@H](NC(=O)/C(=N\OC(C)(C)C(=O)O)c2csc(N)n2)C(=O)N1S(=O)(=O)O [ATM, aztreonam] | 25 | 2 | 2 | 4 | 4 | 0.75 | 1 | 12.5 (≈ 28.7 µM) | 12.5 (≈ 28.7 µM) | 8 | 62.5 (≈ 144 µM) | 500 | FICI, drug combined with CZA [2]: 0.75 |
| O=C(O)c1cn(C2CC2)c2cc(N3CCNCC3)c(F)cc2c1=O [CIP, ciprofloxacin] | 40 | – | – | – | – | 0.5 | – | 0.156 (≈ 0.471 µM) | 1.25 (≈ 3.77 µM) | – | 3.13 (≈ 9.45 µM) | 50 | Ceftazidime-avibactam MIC in combination with the named drug [5]: 4 µg/mL; FICI, drug combined with CAZ ([5]; LESB58-lux): 0.63; FICI, drug combined with CZA ([5]; LESB58-lux): 0.63; FICI, drug combined with CZA [2]: 0.5 |
| Cn1c(N)c(NC(=O)NCCN)c[n+]1CC1=C(C(=O)O)N2C(=O)[C@@H](NC(=O)/C(=N\OC(C)(C)C(=O)[O-])c3nsc(N)n3)[C@H]2SC1 [Ceftolozane] | 50 | – | – | – | – | – | – | – | – | – | – | – | – |
| CNC(C)C1CCC(N)C(OC2C(N)CC(N)C(OC3OCC(C)(O)C(NC)C3O)C2O)O1 (stereo not drawn) [GEN, gentamicin] | 20 | 8 | 8 | 8 | 8 | 0.25 | 16 | 1.56 (≈ 3.27 µM) | 25 (≈ 52.3 µM) | 20 | 25 (≈ 52.3 µM) | 500 | Toxic (visible skin irritation, inflammation, blood vessels, swelling) [1, 7]: 40 mg/mL |
| C[C@@H](O)[C@H]1C(=O)N2C(C(=O)O)=C(S[C@@H]3CN[C@H](C(=O)N(C)C)C3)[C@H](C)[C@H]12 [MEM] | – | – | – | – | – | – | – | – | – | – | – | – | Toxic (visible skin irritation, inflammation, blood vessels, swelling) [1, 7]: 20 mg/mL; Highest tolerated dose tested ([1]; mouse, in vivo, sc): 10 mg/mL |
| NC[C@H]1O[C@H](O[C@H]2[C@H](O)[C@@H](O[C@H]3O[C@H](CO)[C@@H](O)[C@H](N)[C@H]3O)[C@H](N)C[C@@H]2N)[C@H](N)C[C@@H]1O [TOB, tobramycin] | – | 4 | 4 | 8 | 8 | 0.38 | 40 | 0.625 (≈ 1.34 µM) | 25 (≈ 53.5 µM) | 20 | 3.13 (≈ 6.69 µM) | 62.5 | Fold decrease in CAZ MIC, drug combined with CAZ ([5]; LESB58-lux): 8; Fold decrease in CZA MIC, drug combined with CZA ([5]; LESB58-lux): 2; Fold decrease in other MIC, drug combined with CAZ ([5]; LESB58-lux): 4; Fold decrease in other MIC, drug combined with CZA ([5]; LESB58-lux): 8; FICI, drug combined with CAZ ([5]; LESB58-lux): 0.38; FICI, drug combined with CZA ([5]; LESB58-lux): 0.63; FICI, drug combined with CAZ ([5]; LESB58-lux, listed as tobramycin): synergised; also recorded: retained; FICI, drug combined with CAZ ([2]; listed as tobramycin): < 0.4; FICI, drug combined with CZA ([2]; listed as tobramycin): < 0.4; Area of dermoncecrosis, Mean ([6]; tigecycline and tobramycin groups (shared vehicle, CAZ and CZA mice), female Swiss Webster mice, 50 μL s.c. 1 h after infection, day 3, CAZ or CZA 50, CST 1.25, TGC 2.5, TOB 2 mg/mL, vehicle 0.9% saline): 55.6 mm^2; Area of dermoncecrosis, % reduction [6, 10]: 40.9%; CFU per abscess, Fold change [6, 10]: -5.4; Area of dermoncecrosis, % reduction ([6]; tigecycline and tobramycin groups, compared to the vehicle control, day 3, listed as tobramycin): 41%; CFU per abscess, Geometric mean ([6]; tigecycline and tobramycin groups, day 3): 4.5 × 10^7 CFU per abscess; Fold reduction of bacterial load (CFU) relative to vehicle ([6]; tigecycline, tobramycin experiments): ~5 |
| C[C@]1(Cn2ccnn2)[C@H](C(=O)O)N2C(=O)C[C@H]2S1(=O)=O [Tazobactam] | – | – | – | – | – | – | – | – | – | – | – | – | Highest tolerated dose tested ([1]; female, Swiss Webster, mouse, in vivo, sc, 1 day): 25 mg/mL |
